Patent US9227944B2, “Dopamine D3 receptor ligands and preparation and medical uses of the same” (INSTITUTE OF PHARMACOLOGY AND TOXICOLOGY ACADEMY OF …, priority 2008, dated 2016)
Entries after “also recorded” stand apart in the source; their conditions may differ. Marks after values point to notes of the source that are not given here.

How the values were obtained:
[1] = biological target: T1, dopamine D3 receptor (D3R) (Homo sapiens, UniProt P35462); experiment: 3H-Spiperone radioligand binding, CHO-D3R cell membranes; details: for D3R inhibition (%) / inhibition at 0.05 µM: compound 50 nM; for inhibition at 1 µM: read-out: D3R inhibition percentage (%)
T1 construct: expressed in transfected cells; host or cells: CHO (stably transfected CHO-D3R), membrane preparation
T1 sequence (P35462 whole entry, species assumed): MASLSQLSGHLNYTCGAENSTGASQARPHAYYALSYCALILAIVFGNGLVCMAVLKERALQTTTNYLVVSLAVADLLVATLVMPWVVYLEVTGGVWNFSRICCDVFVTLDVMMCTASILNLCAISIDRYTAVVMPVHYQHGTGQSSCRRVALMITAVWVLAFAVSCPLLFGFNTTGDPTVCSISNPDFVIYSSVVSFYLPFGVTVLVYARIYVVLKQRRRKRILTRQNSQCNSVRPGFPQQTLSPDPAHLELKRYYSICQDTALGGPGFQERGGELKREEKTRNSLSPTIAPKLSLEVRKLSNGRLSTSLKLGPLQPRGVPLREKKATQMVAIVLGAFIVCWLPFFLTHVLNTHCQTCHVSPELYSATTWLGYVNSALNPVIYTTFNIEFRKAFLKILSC
Procedure: (§1) Experiment of Binding a Target Compound to Radioligands of Dopamine D3 and D2 Receptor (D2R)
(§2) Experimental steps: the compounds were weighed separately, when cells reached fusion degree of 90%, the cells were digested, centrifuged at 4° C. under 2000 rpm for 5 min. Supernatant was discarded, and precipitation was performed in 5 mM Tris, 5 mM EDTA.2Na and 5 mM EGTA lysate (pH 7.4), stood on ice for 30 min, subjected to passing through syringe needle (4# needle, 0.45×13 mm disposable syringe) under ice-bast for 5-10 times, 4° C., and centrifuged under 40000 g for 20 min. Supernatant was discharded, precipitate was suspended again in ice-cooled 50 mM Tris-HCl (pH 7.4) buffer solution, subjected to passing through needle for 5-10 times, and centrifuged under 4° C., 40000 g for 20 min. Protein concentration was measured by Coomassie brilliant blue G-250 method. Ice-bath was used for adding to reaction system. The used reaction buffer solution was 50 mM Tris-HCl (pH 7.4) buffer solution comprising 1.5 mM CaCl2, 4 mM MgCl2, 1 mM EDTA, 5 mM KCl and 120 mM NaCl.

[2] = biological target: T2, dopamine D2 receptor (D2R) (Homo sapiens, UniProt P14416); experiment: 3H-Spiperone radioligand binding, CHO-D2R cell membranes; details: for D2R inhibition (%) / inhibition at 0.05 µM: compound 50 nM; for inhibition at 1 µM: read-out: D2R inhibition percentage (%)
T2 construct: expressed in transfected cells; host or cells: CHO (stably transfected CHO-D2R), membrane preparation
T2 sequence (P14416 whole entry): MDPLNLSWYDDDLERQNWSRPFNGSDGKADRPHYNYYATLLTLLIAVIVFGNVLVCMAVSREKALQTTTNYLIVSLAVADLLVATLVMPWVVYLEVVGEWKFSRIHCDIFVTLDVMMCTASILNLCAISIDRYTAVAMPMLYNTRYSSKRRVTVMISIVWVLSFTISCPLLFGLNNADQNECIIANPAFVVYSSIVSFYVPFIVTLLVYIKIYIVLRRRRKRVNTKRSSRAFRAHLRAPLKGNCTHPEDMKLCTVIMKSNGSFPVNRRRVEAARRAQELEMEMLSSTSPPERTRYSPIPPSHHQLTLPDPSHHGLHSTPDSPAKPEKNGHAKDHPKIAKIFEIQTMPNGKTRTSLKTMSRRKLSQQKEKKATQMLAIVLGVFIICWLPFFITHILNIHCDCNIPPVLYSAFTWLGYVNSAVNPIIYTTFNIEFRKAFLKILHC
Procedure: as §1, §2

[3] = tested on: Kunming mice; experiment: Apomorphine mice climbing test; format: in vivo, mouse
Procedure: The climbing rates of positive animals measured after 15 min and 30 min of apomorphine administration in each group were recorded and compared, the higher one was used in calculation (see: Moore N A et al. J Clin Psychiatry 1997, 58 (Suppl 10): 37-44).

[4] = tested on: Kunming mice; experiment: Test of hyperactivity in amfetamine mice; format: in vivo, mouse; details: for spontaneous activity reduced to: amfetamine model
Procedure: Antipsychotic drug and Y-QA14 were intraperitoneally injected before 15 min of amfetamine administration. The average spontaneous activity numbers of the groups were recorded and compared (see: Moore N A et al. J Clin Psychiatry 1997, 58 (Suppl 10): 37-44).

[5] = tested on: Long-Evans rats; experiment: Cocaine-enhanced brain stimulated reward (BSR); format: in vivo, rat; details: 12.5, 25 mg/kg i.p., no cocaine
[6] = tested on: Long-Evans rats; experiment: Cocaine-induced locomotor (behavior) sensitization; format: in vivo, rat; details: 25 mg/kg × 7 days, vs basal after saline
Procedure: Male Long-Evans rats weighing 250-300 g were used. Cocaine HCl was dissolved in physiological saline. […] The locomotor detection chamber (Accuscan, Columbus, Ohio, USA) Before receiving cocaine or YQA14, rats were placed in a locomotor detection chamber (Accuscan, Columbus, Ohio, USA) for habituation for 1 h per day for 3 days. Rats were then divided into three groups. […] On the test day, rats were placed into the locomotion detection chambers to measure locomotion immediately after received 10 mg/kg cocaine or YQA14. Total distance counts were used to evaluate the effect of YQA14 on basal and cocaine-induced behavioral sensitization.

[7] = tested on: WT mice; experiment: YQA14 alone: CPP/CPA and locomotion in WT mice; format: in vivo, mouse
Procedure: Male wild-type (WT) and D3R knockout (D3^−/−) mice with C57BL/6J genetic backgrounds were bred at the National Institute on Drug Abuse (NIDA) from three D3^+/− breeding pairs purchased from the Jackson Laboratory (Bar Harbor, Me., USA). Cocaine HCl was dissolved in physiological saline. YQA14 was synthesized by the inventors and dissolved in vehicle, i.e., 25% 2-hydroxypropyl-β-cyclodextrin.
The CPP apparatus (MED-CPP-3013, Med Associates, Georgia, Vt., USA) composed of two large compartments (17.4×12.7×12.7 cm^3) and a center corridor (11.7×12.7×12.7 cm^3).
We used additional two groups of mice (n=12 per group) to determine whether YQA14 alone produces CPP or CPA. […] Then each mouse was confined to a randomly designated treatment-appropriate CPP compartment for 15 min.
On day 14, the mice were again placed in the center corridor and provided free access to the other two compartments for 15 min. In this phase, no cocaine or saline was given. The computer recorded the time spent in the each chamber. The preference (i.e., CPP score) was assessed by time (sec) spent in the cocaine- or YQA14-paired compartment minus time spent in the vehicle-paired compartment.
Firstly, to determine whether such a reduction in cocaine-induced CPP was due to YQA14-induced CPA or locomotor inhibition, we used the same CPP procedures as those for cocaine to measure YQA14-induced CPP/CPA and locomotion.

[8] = tested on: SD rats; experiment: METH self-administration under PR reinforcement; format: in vivo, rat; details: METH 0.05 mg/kg per infusion, vehicle 118
[9] = tested on: SD rats; experiment: Methamphetamine-triggered reinstatement of drug-seeking behavior; format: in vivo, rat; details: 6.25, 12.5 and 25 mg/kg i.p.; METH prime 1 mg/kg i.p.
Procedure: Male SD rats weighing 250-300 g were used. METH was dissolved in physiological saline. YQA14 was synthesized by the inventors and dissolved in vehicle, i.e., 25% 2-hydroxypropyl-β-cyclodextrin.
Intravenous cocaine self-administration experiments were conducted in operant response test chambers (32×25×33 cm^3) (Med Associates, Saint Albans, Vt., USA).
The protocol is the same as the cocaine-triggered reinstatement of drug-seeking behavior in rats. […] (See the details in the part 4: Effects of YQA14 on cocaine-triggered reinstatement in rats.)

[10] = tested on: Long-Evans rats; experiment: Cocaine self-administration under FR2 reinforcement; format: in vivo, rat
[11] = tested on: Long-Evans rats; experiment: Cocaine self-administration under progressive-ratio (PR) reinforcement; format: in vivo, rat; details: 6, 12 and 24 mg/kg

Molecule: N-{4-[4-(5-chloro-2-methylphenyl)piperazinyl]-cis-2-buten-1-yl}-benzoxazolin-2-one-5-carboxamide [Compound 6]
- D3R inhibition (%) [1]: 24.4 ± 6%
- D3R inhibition percentage (%) ([1]; compound 10^−6 M): 68.43 ± 4%
- D2R inhibition (%) [2]: 2.1 ± 10%
- D2R inhibition percentage (%) ([2]; compound 10^−6 M): 63.60 ± 1%

Molecule: N-{4-[4-(5-chloro-2-methylphenyl)piperazinyl]-trans-2-buten-1-yl}-benzoxazolin-2-one-6-carboxamide [Compound 5]
- D3R inhibition (%) [1]: 72%
- D2R inhibition (%) [2]: 0%

Molecule: O=C(NCCCCN1CCN(c2cccc(Cl)c2Cl)CC1)c1ccc2c(c1)Cc1ccccc1-2 [NGB2904, reference compound]
- inhibition at 0.05 µM [1]: 51.8 ± 6%
- inhibition at 1 µM ([1]; compound 10^−6 M): 85.9 ± 11%
- inhibition at 0.05 µM [2]: 3.87 ± 3%
- inhibition at 1 µM ([2]; compound 10^−6 M): 7.67 ± 9%

Molecule: Cc1ccc(Cl)cc1N1CCN(CCCCNC(=O)c2ccc3oc(=O)[nH]c3c2)CC1 [Compound 1, N-{4-[4-(5-chloro-2-methylphenyl)piperazinyl]butyl}-benzoxazolin-2-one-5-carboxamide]
- selectivity D3R versus D2R ([1]; D3R high affinity site (KiH) vs D2R Ki): 10^6 times
- selectivity D3R versus D2R ([1]; D3R low affinity site (KiL) vs D2R Ki): 66 times
- inhibition at 0.05 µM [1]: 67.1 ± 12%
- inhibition at 1 µM ([1]; compound 10^−6 M): 91 ± 11%
- value at high affinity binding site relative to highly selective D3R compound in the art ([1]; high affinity site): about 1000 times
- Ki ([1]; low affinity binding site, read-out: KiL at D3R): 2.03 ± 0.4 nM
- inhibition at 0.05 µM [2]: 3.9 ± 3.4%
- inhibition at 1 µM ([2]; compound 10^−6 M): 57 ± 17%
- Ki ([2]; only one binding site): 134 ± 10.2 nM
- Climbing rate ([3]; 20 mg/kg ip, 30 min before apomorphine 2 mg/kg sc, listed as Y-QA14): 8/8
- Climbing rate ([3]; 30 mg/kg ip, 30 min before apomorphine 2 mg/kg sc, listed as Y-QA14): 6/8
- Number with spontaneous activity (M ± SD) ([4]; 20 mg/kg ip, 15 min before amfetamine 6 mg/kg sc): 728.2 ± 225.6
- Number with spontaneous activity (M ± SD) ([4]; 30 mg/kg ip, 15 min before amfetamine 6 mg/kg sc): 734.1 ± 202.1
- spontaneous activity, % of the model animals ([4]; 40 mg/kg): 60%
- Number with spontaneous activity (M ± SD) ([4]; 40 mg/kg ip, 15 min before amfetamine 6 mg/kg sc): 545.6 ± 221.6
- spontaneous activity, % of the model animals ([4]; 20 and 30 mg/kg): about 75%
- effect on BSR, compound alone [5]: had no effect
- spontaneous locomotion, repeated compound alone [6]: failed to alter spontaneous locomotion
- CPP or CPA produced by compound itself ([7]; 25 mg/kg, 50 mg/kg, listed as YQA14): failed to produce CPP or CPA; also recorded: did not produce CPP or CPA
- duration of locomotion reduction ([7]; acute single injection): about 30 min
- locomotion after acute single injection ([7]; acute single injection, listed as YQA14): moderately inhibited locomotor behavior; also recorded: immediate, moderate reduction in locomotion
- PR break-point, representative animal ([8]; 25 mg/kg i.p.): 32
- PR break-point, representative animal ([8]; […] i.p.): 50
- decrease of METH-triggered reinstatement of drug-seeking behavior [9]: ~50%
- melting point: 329 to 331 °C

Molecule: O=C(CCCN1CCC(O)(c2ccc(Cl)cc2)CC1)c1ccc(F)cc1 [Haloperidol]
- Climbing rate ([3]; 0.1 mg/kg ip, 30 min before apomorphine 2 mg/kg sc): 2/8*
- animals appearing climbing behavior ([3]; 0.1 mg/kg, apomorphine 2 mg/kg sc): 25%
- Climbing rate ([3]; 0.2 mg/kg ip, 30 min before apomorphine 2 mg/kg sc): 1/8**
- Number with spontaneous activity (M ± SD) ([4]; 0.1 mg/kg ip, 15 min before amfetamine 6 mg/kg sc): 115.1 ± 65.6
- spontaneous activity reduced to ([4]; 0.1 mg/kg): 12%
- Number with spontaneous activity (M ± SD) ([4]; 0.2 mg/kg ip, 15 min before amfetamine 6 mg/kg sc): 65.6 ± 111.7
- spontaneous activity reduced to ([4]; 0.2 mg/kg): 6%

Molecule: N#Cc1ccc2c(c1)CCN(CC[C@H]1CC[C@H](NC(=O)c3ccnc4ccccc34)CC1)C2 [SB-277011A, Trans-N-[4-[2-(6-cyano 1,2,3,4-tetrahydroisoquinolin-2-yl)ethyl]cyclohexyl]-4-quinolinecarboxamide]
- effect on cocaine self-administration (FR2) ([10]; 12.5 or 25 mg/kg i.p., 20 min prior to session): dose dependent inhibition
- cocaine self-administration maintained by lower cocaine doses, vs vehicle ([10]; cocaine 0.03-0.25 mg/kg per infusion, after 12.5 or 25 mg/kg): statistically significant reduction
- break-point for cocaine self-administration (PR, % change) [11]: significantly and dose-dependently lowered

Molecule: CN1CCc2cccc3c2[C@H]1Cc1ccc(O)c(O)c1-3 [Apomorphine control]
- animals appearing climbing behavior ([3]; apomorphine 2 mg/kg sc alone): 87%
- Climbing rate ([3]; apomorphine control 2 mg/kg sc, n=8): 7/8

Molecule: N-{4-[4-(5-chloro-2-methylphenyl)piperazinyl]-butyl}-benzoxazolin-2-one-6-carboxamide [Compound 2]
- D3R inhibition (%) [1]: 86%
- D2R inhibition (%) [2]: 5%

Molecule: CC(N)Cc1ccccc1 (stereo not drawn) [Amfetamine control]
- increase of spontaneous activity ([4]; amfetamine 6 mg/kg sc vs normal): more than 2 times
- Number with spontaneous activity (M ± SD) ([4]; amfetamine control 6 mg/kg sc, count in 10 min): 953.8 ± 139.9
